# Patent US20070270350A1, “Methods and Compositions for the Prevention and Treatment of Inflammatory Diseases or Conditions” (MUSC FOUNDATION FOR RESEARCH DEVELOPMENT, priority 2003, published 2007)
# Tests used:
# AMPK = assay: Phosphorylation of AMPK and ACC in primary astrocytes (immunoblot); type: cell-based, rat
# Experimental: Immunoblot Analysis: Cells were harvested in ice-cold lysis buffer (50 mM Tris-HCl, pH 7.4, containing 50 mM NaCl, 1 mM EDTA, 0.5 mM EGTA, 10% glycerol and protease inhibitor cocktail) and protein was estimated using Bradford reagent (Bio-Rad, USA). Fifty microgram of total protein/lane was separated by SDS-PAGE and blotted to nitrocellulose (Amersham Pharmacia Biotech). Blots were blocked for 1 h in 5% nonfat dry milk-TBS-0.1% Tween 20 and incubated overnight with primary antibody (1:1000) in 5% BSA-TBS-0.1% Tween 20 at 4° C. This was followed by incubation of 1 h with appropriate secondary peroxidase conjugated antibody (1:10,000, Sigma). Immunoreactivity was detected using the enhanced chemiluminescence detection method according to the manufacturer's instructions (Amersham Pharmacia Biotech) and subsequent exposure of the membrane to X-ray film.
# Antisense experiments: To decrease the levels of endogenous AMPK, astrocytes were pretreated for 48 h with 25 μm (of phosphothiorated antisense (AS) oligonucleotide (5′ […]-3′) directly against both the ? α1 and α2 ? subunits of AMPK (Culmsee et al., 2001) ? ? ? missense (MS) oligonucleotide (5′ […]-3′) was used in control cultures. Oligonucleotides were transfected with Oligofectamine™ reagent as per manufacturer's instructions.
# AMPK and IKKα/ ? assays: AMPK activity was assayed in primary rat astrocytes as described (Kim et al., 2001). […]
# iNOS = assay: LPS-induced iNOS expression and iNOS promoter activity in primary astrocytes (AICAR); type: cell-based, rat
# Experimental: Immunoblot Analysis: Cells were harvested in ice-cold lysis buffer (50 mM Tris-HCl, pH 7.4, containing 50 mM NaCl, 1 mM EDTA, 0.5 mM EGTA, 10% glycerol and protease inhibitor cocktail) and protein was estimated using Bradford reagent (Bio-Rad, USA). Fifty microgram of total protein/lane was separated by SDS-PAGE and blotted to nitrocellulose (Amersham Pharmacia Biotech). Blots were blocked for 1 h in 5% nonfat dry milk-TBS-0.1% Tween 20 and incubated overnight with primary antibody (1:1000) in 5% BSA-TBS-0.1% Tween 20 at 4° C. This was followed by incubation of 1 h with appropriate secondary peroxidase conjugated antibody (1:10,000, Sigma). Immunoreactivity was detected using the enhanced chemiluminescence detection method according to the manufacturer's instructions (Amersham Pharmacia Biotech) and subsequent exposure of the membrane to X-ray film. Antisense experiments: To decrease the levels of endogenous AMPK, astrocytes were pretreated for 48 h with 25 μm (of phosphothiorated antisense (AS) oligonucleotide ([NT]) directly against both the ? α1 and α2 ? subunits of AMPK (Culmsee et al., 2001) ? ? ? missense (MS) oligonucleotide ([NT]) was used in control cultures. Oligonucleotides were transfected with OligofectamineTM reagent as per manufacturer's instructions. Northern blot, gene array analysis and RT-PCR for cytokines expression: Total RNA was extracted with Trizol (Gibco) according to the manufacturer's protocol. Northern blot for iNOS was performed with 15 μg of RNA per reaction as described previously (Pahan et al., 1997). β-actin was used as control for RNA loading. Gene expression array for inflammatory cytokines (TNFα, IL-1β, IL-6 and IFN-γ) was used according to the manufacturer's protocol (Superarray). Signal quantitation was determined using imaging densitomter (Bio-Rad Lab, Hercules, Calif.). For RT-PCR, RNA was isolated from treated rat brain cerebral cortex by extracting in Trizol as above. cDNA was prepared from 5 μg of total RNA using poly dT as a primer and Moloney murine leukemia virus reverse transcriptase (Promega) as per manufacturer's instructions. 2 μl of cDNA was used to amplify the following products [given as product name, expected size, and forward (F) and reverse (R) primers used]: iNOS, 730 bp. ([NT]-1β, 623 bp. ([…]-α, 473 bp. ([…], 528 bp. […] Transcriptional assays: Primary astrocytes or microglial cell line (BV2) were transiently transfected with NF- ? B-or iNOS-luciferase reporter gene with ? -galactosidase in the presence or absence of dominant negative AMPKα2 or HA-IKK ? by lipofectamine-2000 (astrocytes) and lipofectamine-Plus (BV2, Invitrogen) according to the manufacturer instructions. pcDNA3 was used to normalize all groups to equal amounts of DNA. Luciferase activity was determined using a luciferase kit (Promega).
# [1] = test system: rat model of focal cerebral ischemia (MCAO); assay: Focal cerebral ischemia model (20 min MCAO, reperfusion); type: in vivo; settings: GSH up to 150 mg/kg body weight after the onset of ischemia
# Experimental: Animals. A total of 60 male Sprague-Dawley rats (Charles River Laboratories, Wilmington, Mass.) weighing 250-300 g were used in this study. All animals received humane care in compliance with the Medical University of South Carolina's guidance and the National Research Council's criteria for humane care as outlined in ‘Guide for the Care and Use of Laboratory Animals’. Body temperature was monitored by a rectal probe and maintained at 37±0.5° C. by a homeothermic blanket control unit (Harvard Apparatus, Holliston, Mass.). Cranial temperature and mean arterial blood pressure were measured by HSE Plugsys TAM-D and TCAM (Harvard Apparatus) respectively.
# Experimental design and administration of drugs. All animal procedures were approved by the Medical University of South Carolina Animal Review Committee and were in accordance with the guidelines for animal use published by the National Institute of Health. […]
# Measurement of physiological variables. The physiological variables were measured before, during MCA occlusion, at reperfusion and 30 min after reperfusion. The rectal temperature was monitored and maintained at about 37 to 37.6° C. […]
# Evaluation of ischemic infarct and neurological score. […] The infarct area, outlined in white, was acquired by image-analysis software (Photoshop 4.0 Adobe System) and measured by NIH image software. […]
# [2] = X-ALD patients; cited from earlier work
compound,measurement,setting,value
"5′ CGCCCGTCGTCGTGCTTCTGC-3′ (phosphorothioate, further chemistry not given here) [antisense (AS), phosphothiorated antisense oligonucleotide against the α1 and α2 subunits of AMPK]",catalytic subunit AMPKα1 level (immunoblot),"AMPK; 25 μM antisense, 48 h",decreased
same,LPS mediated iNOS protein expression,"iNOS; AMPK antisense 25 μM, then LPS 1 μg/ml",significantly induced
Nc1ncnc2c1c(I)cn2[C@@H]1O[C@H](CO)[C@@H](O)[C@H]1O [5-iodotubercidin],effect on AICAR induced phosphorylation of AMPK and ACC,"AMPK; adenosine kinase inhibitor 0.1 μM, 30 min before AICAR 1 mM",blocked
same,effect on inhibition induced by AICAR on iNOS protein expression,"iNOS; adenosine kinase inhibitor with AICAR and LPS, 24 h",reverse the inhibition
"N[C@@H](CCC(=O)N[C@@H](CS)C(=O)NCC(=O)O)C(=O)O [GSH, gamma-glutamylcysteinylglycine]",protective effect in ischemia,[1],no protective effect
CCCCCCCC/C=C\CCCCCCCC(=O)OCC(COC(=O)CCCCCCC/C=C\CCCCCCCC)OC(=O)CCCCCCC/C=C\CCCCCCCC [trioleate],reduction of VLCFA,[2],50%
